This is an account of results in patent US8846699B2, “Quinazoline derivatives as a multiplex inhibitor and method for the preparation thereof” (Hanmi Pharm. Co., Ltd., priority 2005, dated 2014).

The subject of test [1] is breast cancer cell line, SK-Br3. Nature of the test: Inhibitory effect on growth of cancer cell line SK-Br3, SRB. In kind it is cell-based. The following applies: overexpressed EGFR2 (HER-2). Summed up:
(§1)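 Growth inhibition was measured by sulforhodamine-B staining (absorbance 570 nm) of TCA-fixed cells after 72 h compound exposure at 37 °C, 5% CO2. Test concentrations ran from 10 μM in 10-fold steps to 10^−4, with DMSO below 1%, in 10% FBS DMEM.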

The target in the next test is VEGFR2 (KDR) (Homo sapiens (Human), UniProt P35968). Nature of the test: VEGFR2 (KDR) enzyme assay, fluorescence polarization. The following applies: 5 μM ATP, poly(Glu, Tyr) substrate. The test is classed as biochemical. The essentials:
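Buffer: 20 mM HEPES pH 7.4 with 5 mM MgCl2, 2 mM MnCl2 and 50 μM Na3VO4. Compound (0.0001–10 μM) was premixed 10 min with VEGFR2 (200 ng/10 μl), then poly(Glu,Tyr) substrate (10 ng/ml) and 5 μM ATP were added for 1 h at room temperature. EDTA-quenched samples were read by FP after 30 min with antibody and tracer.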
For orientation: Polarisation of emitted light reports the rotation of a fluorescent probe.

The target in a further test is EGFR1 (HER-1) (Homo sapiens (Human), UniProt P00533). Nature of the test: EGFR1 (HER-1) enzyme assay, fluorescence polarization. The following applies: 100 μM ATP, poly(Glu, Tyr) substrate. The test is classed as biochemical.
The subject of test [2] is colon and rectal cancer cell line, SW-620. Nature of the test: Inhibitory effect on growth of cancer cell line SW-620, SRB. In kind it is cell-based. The following applies: not having overexpressed EGFR and EGFR2. The essentials: as §1
For test [3], the system named is Human Umbilical Vein Endothelial Cell (HUVEC). Nature of the test: Inhibitory effect on growth of human umbilical vein endothelial cell (HUVEC), MTS. In kind it is cell-based. The following applies: 10 ng/ml VEGF, absorbance 490 nm.
Test [4] relates to skin cancer cell line, A431. Nature of the test: Inhibitory effect on growth of cancer cell line A431, SRB. In kind it is cell-based. The following applies: overexpressed EGFR1 (HER-1). The essentials: as §1

VEGFR2 (KDR), sequence (P35968 20-1356): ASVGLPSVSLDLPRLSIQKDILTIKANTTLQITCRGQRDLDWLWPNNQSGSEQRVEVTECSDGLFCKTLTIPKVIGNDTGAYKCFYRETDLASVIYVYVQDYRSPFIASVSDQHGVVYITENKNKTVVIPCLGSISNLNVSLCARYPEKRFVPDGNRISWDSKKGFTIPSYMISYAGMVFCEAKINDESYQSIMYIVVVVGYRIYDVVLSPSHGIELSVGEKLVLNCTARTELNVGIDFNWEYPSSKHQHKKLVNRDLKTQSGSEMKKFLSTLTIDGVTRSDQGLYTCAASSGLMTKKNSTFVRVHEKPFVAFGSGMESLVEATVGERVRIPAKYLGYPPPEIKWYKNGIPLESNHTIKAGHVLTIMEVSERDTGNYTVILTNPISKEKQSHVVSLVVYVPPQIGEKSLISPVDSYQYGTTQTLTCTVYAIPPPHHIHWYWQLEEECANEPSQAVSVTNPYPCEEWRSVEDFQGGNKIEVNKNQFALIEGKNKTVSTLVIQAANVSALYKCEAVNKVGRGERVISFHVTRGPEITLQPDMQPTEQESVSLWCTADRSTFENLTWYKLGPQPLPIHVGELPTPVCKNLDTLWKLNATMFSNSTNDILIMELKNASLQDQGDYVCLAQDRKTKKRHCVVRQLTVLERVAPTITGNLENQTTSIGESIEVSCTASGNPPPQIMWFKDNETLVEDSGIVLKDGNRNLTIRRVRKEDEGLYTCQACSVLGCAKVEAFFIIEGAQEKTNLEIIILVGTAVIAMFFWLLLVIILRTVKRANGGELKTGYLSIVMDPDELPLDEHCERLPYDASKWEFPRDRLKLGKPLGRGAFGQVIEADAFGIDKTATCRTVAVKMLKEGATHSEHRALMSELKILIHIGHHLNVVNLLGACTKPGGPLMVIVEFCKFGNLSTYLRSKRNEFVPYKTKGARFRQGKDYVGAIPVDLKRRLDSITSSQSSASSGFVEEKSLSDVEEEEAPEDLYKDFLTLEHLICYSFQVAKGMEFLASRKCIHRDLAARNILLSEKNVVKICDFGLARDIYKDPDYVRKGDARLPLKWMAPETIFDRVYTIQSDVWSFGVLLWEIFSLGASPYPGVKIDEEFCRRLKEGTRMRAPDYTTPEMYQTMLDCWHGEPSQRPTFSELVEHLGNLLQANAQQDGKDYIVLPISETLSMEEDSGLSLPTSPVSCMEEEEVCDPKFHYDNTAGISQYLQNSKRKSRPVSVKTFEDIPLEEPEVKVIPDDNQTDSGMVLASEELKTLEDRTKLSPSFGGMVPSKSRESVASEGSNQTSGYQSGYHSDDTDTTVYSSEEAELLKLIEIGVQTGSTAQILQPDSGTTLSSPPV
EGFR1 (HER-1), sequence (P00533 25-1210): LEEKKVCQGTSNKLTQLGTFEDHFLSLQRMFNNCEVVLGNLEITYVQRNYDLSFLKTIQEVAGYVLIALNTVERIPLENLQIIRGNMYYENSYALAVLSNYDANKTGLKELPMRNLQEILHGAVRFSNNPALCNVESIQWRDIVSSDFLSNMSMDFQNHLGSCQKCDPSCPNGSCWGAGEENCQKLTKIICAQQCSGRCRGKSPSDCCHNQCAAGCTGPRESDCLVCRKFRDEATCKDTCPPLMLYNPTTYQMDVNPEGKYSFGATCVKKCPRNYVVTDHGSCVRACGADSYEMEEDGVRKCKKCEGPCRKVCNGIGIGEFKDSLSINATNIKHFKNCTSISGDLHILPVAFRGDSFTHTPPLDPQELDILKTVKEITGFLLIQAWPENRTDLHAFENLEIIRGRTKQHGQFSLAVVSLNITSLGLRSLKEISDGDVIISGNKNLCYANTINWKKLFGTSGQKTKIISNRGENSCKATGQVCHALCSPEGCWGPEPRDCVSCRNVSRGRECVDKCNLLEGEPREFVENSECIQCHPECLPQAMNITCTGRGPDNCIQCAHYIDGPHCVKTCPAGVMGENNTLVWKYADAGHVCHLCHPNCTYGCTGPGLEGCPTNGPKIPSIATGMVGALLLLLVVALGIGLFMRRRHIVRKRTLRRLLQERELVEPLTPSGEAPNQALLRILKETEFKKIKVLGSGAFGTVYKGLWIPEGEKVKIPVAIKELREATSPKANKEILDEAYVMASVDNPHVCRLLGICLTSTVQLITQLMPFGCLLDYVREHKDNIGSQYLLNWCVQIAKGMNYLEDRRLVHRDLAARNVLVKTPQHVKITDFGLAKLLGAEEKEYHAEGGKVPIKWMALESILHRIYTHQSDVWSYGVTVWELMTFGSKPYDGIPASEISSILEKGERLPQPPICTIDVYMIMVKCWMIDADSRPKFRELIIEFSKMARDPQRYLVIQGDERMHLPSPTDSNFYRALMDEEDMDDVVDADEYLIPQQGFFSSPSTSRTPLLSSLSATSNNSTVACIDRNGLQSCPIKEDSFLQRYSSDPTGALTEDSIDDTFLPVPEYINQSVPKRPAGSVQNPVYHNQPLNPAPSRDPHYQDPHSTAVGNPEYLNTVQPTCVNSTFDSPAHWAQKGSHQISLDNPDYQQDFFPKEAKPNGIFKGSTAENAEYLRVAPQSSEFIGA

As a reminder, the IC50 is the concentration that inhibits the measured activity by half. A high value points to a need for much substance. Turning to `C=CC(=O)Nc1cc2c(Nc3ccc(Br)cc3F)ncnc2cc1OCCNC(=O)CN(C)CC` [Example 56, N-(4-(4-bromo-2-fluoro-phenylamino)-7-{2-[2-(ethyl-methyl-amino)-acetylamino]-ethoxy}-quinazolin-6-yl)-acrylamide], the IC50 came to 128 nM in test [1] (Homo sapiens, SK-BR-3, 72 h); 654 nM at VEGFR2 (KDR); 198 nM on EGFR1 (HER-1); 10 µM in test [2] (Homo sapiens, 72 h); 691 nM in test [3] (Homo sapiens, 96 h); 153 nM in test [4] (Homo sapiens, A-431, 72 h).

Take `C=CC(=O)Nc1cc2c(Nc3ccc(Br)cc3F)ncnc2cc1OCCNC(=O)CN` [Example 57, N-[7-[2-(2-amino-acetylamino)-ethoxy]-4-(4-bromo-2-fluoro-phenylamino)-quinazolin-6-yl]-acrylamide]: the half-inhibitory concentration (IC50) was determined as 781 nM in test [1] (Homo sapiens, SK-BR-3, 72 h); 235 nM against VEGFR2 (KDR); 89 nM against EGFR1 (HER-1); 9.57 µM in test [2] (Homo sapiens, 72 h); 379 nM in test [3] (Homo sapiens, 96 h); 91 nM in test [4] (Homo sapiens, A-431, 72 h).

Take `C=CC(=O)Nc1cc2c(Nc3ccc(Br)cc3F)ncnc2cc1OCCNC(=O)C(C)N(C)C` (stereo not drawn) [Example 58, N-{4-(4-bromo-2-fluoro-phenylamino)-7-[2-(2-dimethylamino-propionylamino)-ethoxy]-quinazolin-6-yl}-acrylamide]: the IC50 in test [1] (Homo sapiens, SK-BR-3, 72 h) was 395 nM; on VEGFR2 (KDR), 954 nM; on EGFR1 (HER-1), 125 nM; in test [2] (Homo sapiens, 72 h), 5.51 µM; in test [3] (Homo sapiens, 96 h) it was 945 nM; in test [4] (Homo sapiens, A-431, 72 h), 116 nM.

`C=CC(=O)Nc1cc2c(Nc3ccc(Br)cc3F)ncnc2cc1OCCNC(=O)CCN(CC)CC` [Example 59, N-{4-(4-bromo-2-fluoro-phenylamino)-7-[2-(3-diethylamino-propionylamino)-ethoxy]-quinazolin-6-yl}-acrylamide]: the IC50 worked out at 111 nM in test [1] (Homo sapiens, SK-BR-3, 72 h); 198 nM at VEGFR2 (KDR); 44 nM against EGFR1 (HER-1); 10 µM in test [2] (Homo sapiens, 72 h); 204 nM in test [3] (Homo sapiens, 96 h); 45 nM in test [4] (Homo sapiens, A-431, 72 h).

Consider `C=CC(=O)Nc1cc2c(Nc3ccc(Br)cc3F)ncnc2cc1OCCNC(=O)CNC` [Example 60, N-{4-(4-bromo-2-fluoro-phenylamino)-7-[2-(2-methylamino-acetylamino)-ethoxy]-quinazolin-6-yl}-acrylamide], for which the half-maximal inhibitory concentration (IC50) is 939 nM in test [1] (Homo sapiens, SK-BR-3, 72 h); 685 nM against VEGFR2 (KDR); 136 nM against EGFR1 (HER-1); 9.57 µM in test [2] (Homo sapiens, 72 h); 689 nM in test [3] (Homo sapiens, 96 h); 125 nM in test [4] (Homo sapiens, A-431, 72 h).

Turning to `C=CC(=O)Nc1cc2c(Nc3ccc(Br)cc3F)ncnc2cc1OCCNC(=O)CCN(C)C` [Example 61, N-{4-(4-bromo-2-fluoro-phenylamino)-7-[2-(3-dimethylamino-propionylamino)-ethoxy]-quinazolin-6-yl}-acrylamide], the concentration for half-maximal inhibition (IC50) in test [1] (Homo sapiens, SK-BR-3, 72 h) was found to be 59 nM; on VEGFR2 (KDR), 354 nM; on EGFR1 (HER-1), 9 nM; in test [2] (Homo sapiens, 72 h) it was 10 µM; in test [3] (Homo sapiens, 96 h) it was 384 nM; in test [4] (Homo sapiens, A-431, 72 h), 6 nM.

`C=CC(=O)Nc1cc2c(Nc3ccc(Br)cc3F)ncnc2cc1OCCNC(=O)OC` [Example 63, {2-[6-acryloylamino-4-(4-bromo-2-fluoro-phenylamino)-quinazolin-7-yloxy]-ethyl}-carbamic acid methylester]: the IC50 in test [1] (Homo sapiens, SK-BR-3, 72 h) was 198 nM; against VEGFR2 (KDR) it was 84 nM; on EGFR1 (HER-1), 158 nM; in test [2] (Homo sapiens, 72 h), 10 µM; in test [3] (Homo sapiens, 96 h), 102 nM; in test [4] (Homo sapiens, A-431, 72 h) it was 140 nM.

On to `C=CC(=O)Nc1cc2c(Nc3ccc(Br)cc3F)ncnc2cc1OCCNC(=O)CCOC` [Example 64, N-{4-(4-bromo-2-fluoro-phenylamino)-7-[2-(3-methoxy-propionylamino)-ethoxy]-quinazolin-6-yl}-acrylamide], for which the IC50 in test [1] (Homo sapiens, SK-BR-3, 72 h) is 360 nM; at VEGFR2 (KDR), 231 nM; at EGFR1 (HER-1), 70 nM; in test [2] (Homo sapiens, 72 h), 4.59 µM; in test [3] (Homo sapiens, 96 h), 298 nM; in test [4] (Homo sapiens, A-431, 72 h), 72 nM.

For `C=CC(=O)Nc1cc2c(Nc3ccc(Br)cc3F)ncnc2cc1OCC(=O)NCCN(CC)CC` [Example 65, N-{4-(4-bromo-2-fluoro-phenylamino)-7-[(2-diethylamino-ethylcarbamoyl)-methoxy]-quinazolin-6-yl}-acrylamide], the IC50 in test [1] (Homo sapiens, SK-BR-3, 72 h) was 694 nM; against VEGFR2 (KDR), 954 nM; against EGFR1 (HER-1) it was 652 nM; in test [2] (Homo sapiens, 72 h) it was 10 µM; in test [3] (Homo sapiens, 96 h) it was 964 nM; in test [4] (Homo sapiens, A-431, 72 h) it was 596 nM.

As to `C=CC(=O)Nc1cc2c(Nc3ccc(Br)cc3F)ncnc2cc1OCCNC(=O)CCO` [Example 67, N-{4-(4-bromo-2-fluoro-phenylamino)-7-[2-(3-hydroxy-propionylamino)-ethoxy]-quinazolin-6-yl}-acrylamide], the IC50 in test [1] (Homo sapiens, SK-BR-3, 72 h) amounted to 983 nM; at VEGFR2 (KDR), 215 nM; against EGFR1 (HER-1), 89 nM; in test [2] (Homo sapiens, 72 h), 2.21 µM; in test [3] (Homo sapiens, 96 h), 351 nM; in test [4] (Homo sapiens, A-431, 72 h), 73 nM.

In the case of `C=CC(=O)Nc1cc2c(Nc3ccc(F)cc3F)ncnc2cc1OCCNC(=O)CN(C)C` [Example 68, N-[4-(2,4-difluorophenylamino)-7-{2-[2-(dimethylamino)-acetylamino]-ethoxy}-quinazolin-6-yl]-acrylamide], the IC50 in test [1] (Homo sapiens, SK-BR-3, 72 h) turned out to be 564 nM; at VEGFR2 (KDR) it was 687 nM; at EGFR1 (HER-1) it was 156 nM; in test [2] (Homo sapiens, 72 h) it was 0.725 µM; in test [3] (Homo sapiens, 96 h), 682 nM; in test [4] (Homo sapiens, A-431, 72 h), 265 nM.

With `C=CC(=O)Nc1cc2c(Nc3ccc(Br)cc3F)ncnc2cc1OCCNC(=O)C(=O)OCC` [Example 71, {2-[6-acryloylamino-4-(4-bromo-2-fluoro-phenylamino)-quinazolin-7-yloxy]-ethyl}-oxalamic acid ethylester], the IC50 in test [1] (Homo sapiens, SK-BR-3, 72 h) worked out at 4400 nM; at VEGFR2 (KDR) it was 251 nM; against EGFR1 (HER-1) it was 98 nM; in test [2] (Homo sapiens, 72 h) it was 2.98 µM; in test [3] (Homo sapiens, 96 h), 286 nM; in test [4] (Homo sapiens, A-431, 72 h) it was 100 nM.

For the compound `C=CC(=O)Nc1cc2c(Nc3ccc(Br)cc3F)ncnc2cc1OCCNC(=O)C(=O)O` [Example 72, {2-[6-acryloylamino-4-(4-bromo-2-fluoro-phenylamino)-quinazolin-7-yloxy]-ethyl}-oxalamic acid], the IC50 in test [1] (Homo sapiens, SK-BR-3, 72 h) was found to be 5410 nM; on VEGFR2 (KDR), 84 nM; against EGFR1 (HER-1), 102 nM; in test [2] (Homo sapiens, 72 h), 10 µM; in test [3] (Homo sapiens, 96 h) it was 106 nM; in test [4] (Homo sapiens, A-431, 72 h), 125 nM.

Consider `C=CC(=O)Nc1cc2c(Nc3ccc(Br)cc3F)ncnc2cc1OCCNC(=O)C=NOC` [Example 73, N-{4-(4-bromo-2-fluoro-phenylamino)-7-[2-(2-methoxyimino-acetylamino)-ethoxy]-quinazolin-6-yl}-acrylamide], for which the IC50 in test [1] (Homo sapiens, SK-BR-3, 72 h) worked out at 589 nM; against VEGFR2 (KDR), 668 nM; on EGFR1 (HER-1) it was 256 nM; in test [2] (Homo sapiens, 72 h) it was 10 µM; in test [3] (Homo sapiens, 96 h), 634 nM; in test [4] (Homo sapiens, A-431, 72 h), 365 nM.

`C=CC(=O)Nc1cc2c(Nc3ccc(Br)cc3F)ncnc2cc1OCCNC(=O)C(C)CN(C)C` (stereo not drawn) [Example 74, N-{4-(4-bromo-2-fluoro-phenylamino)-7-[2-(3-dimethylamino-2-methyl-propionylamino)-ethoxy]-quinazolin-6-yl}-acrylamide]: the IC50 in test [1] (Homo sapiens, SK-BR-3, 72 h) worked out at 658 nM; against VEGFR2 (KDR), 372 nM; against EGFR1 (HER-1) it was 251 nM; in test [2] (Homo sapiens, 72 h), 0.726 µM; in test [3] (Homo sapiens, 96 h), 358 nM; in test [4] (Homo sapiens, A-431, 72 h), 321 nM.

`CCC(=O)Nc1cc2c(Nc3ccc(Br)cc3F)ncnc2cc1OCCNC(C)=O` [Example 77, propionic acid [7-(2-acetylamino-ethoxy)-4-(4-bromo-2-fluoro-phenylamino)-quinazolin-6-yl]-amide]: the 50% inhibitory concentration (IC50) in test [1] (Homo sapiens, SK-BR-3, 72 h) came to 7800 nM; on VEGFR2 (KDR), 365 nM; against EGFR1 (HER-1), 866 nM; in test [2] (Homo sapiens, 72 h), 10 µM; in test [3] (Homo sapiens, 96 h), 350 nM; in test [4] (Homo sapiens, A-431, 72 h), 951 nM.

Regarding `C=CC(=O)Nc1cc2c(Nc3ccc(Br)c(F)c3)ncnc2cc1OCCNC(=O)CN(C)C` [Example 79, N-4-(4-bromo-3-fluoro-phenylamino)-7-[2-(2-dimethylamino-acetylamino)-ethoxy]-quinazolin-6-yl-acrylamide], the IC50 in test [1] (72 hours) is 313 nM; against VEGFR2 (KDR), 1430 nM; at EGFR1 (HER-1), 78 nM; in test [2] (72 hours) it was 10 µM; in test [3] (96 hours) it was 723 nM; in test [4] (72 hours) it was 84 nM.

On to `C=CC(=O)Nc1cc2c(Nc3ccc(Br)cc3F)ncnc2cc1OC(C)CNC(C)=O` (stereo not drawn) [Example 80, N-[7-(2-acetylamino-1-methyl-ethoxy)-4-(4-bromo-2-fluoro-phenylamino)-quinazolin-6-yl]-acrylamide], for which the IC50 amounted to 211 nM in test [1] (Homo sapiens, SK-BR-3, 72 h); 77 nM against VEGFR2 (KDR); 36 nM against EGFR1 (HER-1); 10 µM in test [2] (Homo sapiens, 72 h); 109 nM in test [3] (Homo sapiens, 96 h); 41 nM in test [4] (Homo sapiens, A-431, 72 h).
